Results: US9198875B2, “Controlled delivery of bioactive agents from decomposable films” (Massachusetts Institute of Technology, priority 2008, dated 2015)
Converted amounts (≈) assume the structure as drawn. Read-outs that look alike come from different tables or passages of the source.

Assays:
[1] = Solubility of drugs in water and complexed with cyclodextrins; format: physicochemical
[2] = Complexation coefficients of drugs with cyclodextrins; format: physicochemical; details: calculated from solubility values
[3] = Release of small molecules from polymeric cyclodextrin-containing LbL films in phosphate buffer (fluorescence spectroscopy); format: physicochemical; details: 20 bilayers; for Release Rate: from poly A3/poly(BCD) films, phosphate buffer pH 7.4
Description: Release profiles were investigated by monitoring the release of the small molecule using a fluorimeter and the degradation of non-radiolabeled films. For drug release experiments, 20 bilayer films were constructed using carboxymethylbeta-cyclodextrin polymer:drug conjugate solution. The deposition solutions were prepared by combining 25 μM carboxymethylbeta-cyclodextrin polymers solution in 0.1 M sodium acetate buffer (1 Mn=8,000), with the various small molecules. After fabrication, each twenty bilayer film was immersed in 10 mL phosphate buffer solution (pH 7.4, 137 mM NaCl, 2.7 mM KCl, 10 mM Na2HPO4). A 1 mL sample was extracted at various time points and analyzed via fluorescence spectroscopy. Degradation vials were tightly capped between sample extractions to prevent evaporation of the buffer solution. Raw spectrum data were converted to micrograms (μg) of drug released using a calibration curve for a given molecule at a defined emission wavelength.
Poly(BCD)-prodan inclusion complexes were made by dissolving prodan in poly(BCD) as described for poly(BCD)-ciprofloxacin inclusion complexes in Example 3. (Poly 1/poly(BCD)-prodan)20 films were constructed by layer-by-layer deposition and prodan release studies were conducted as described in Example 1.
Formation of poly(BCD): drug inclusion complexes and film construction were achieved by methods as described in Examples 1-3; release studies were performed as described in Example 4. Solubility values and complexation coefficients were determined and/or calculated according to previously published methods (Brewster et al. 2007. “Cyclodextrins as pharmaceutical solubilizers.” Advanced Drug Delivery. 59: 645-666).

[4] = Release of 14C-dextran sulfate from LbL films in phosphate buffer (scintillation counting); format: physicochemical; details: films built with poly A3, 20 bilayers, phosphate buffer pH 7.4; approximately linear kinetics
Description: Release profiles were investigated by monitoring the release of ^14C-dextran sulfate and the degradation of non-radiolabeled films. For drug release experiments, 20 bilayer radiolabeled films were constructed using ^14C-dextran sulfate solution. The radiolabled deposition solutions were prepared by combining ^14C-dextran sulfate (1.5 mCi/g, Mn=8,000), unlabeled dextran sulfate (Mn=8,000), and 100 mM acetate buffer to yield a total concentration of dextran sulfate (unlabeled plus labeled) to 2 mg/mL (1 μCi/mL ^14C). After fabrication, each twenty bilayer film was immersed in 30 mL phosphate buffer solution (pH 7.4, 137 mM NaCl, 2.7 mM KCl, 10 mM Na2HPO4). A 1 mL sample was extracted at various time points and analyzed via scintillation counting. Scintillation counting was performed on a Tri-carb liquid scintillation counter (Model U2200) and the amount of radiolabel in each sample vial was measured using ^14C protocol. Degradation vials were tightly capped between sample extractions to prevent evaporation of the buffer solution. Raw data (disintegrations per minute, DPM) were converted to micrograms (μg) of drug released using the conversion factor 2.2×10^6 DPM=1 μCi, the specific radioactivity of the drug, and knowledge of the ratio of total drug to labeled drug in the deposition solution.

[5] = tested on: cyclooxygenase (COX); assay: Inhibition of cyclooxygenase by film release buffer in A549 cells, prostaglandin E2 concentration measured; format: cell-based, human; details: A549 cells exposed to aliquots of release buffer, buffer replaced every 24 hours
Description: To determine if polymeric cyclodextrin alters drug activity, the inhibition of cyclooxygenase (COX) by diclofenac was investigated. COX is the rate limiting enzyme in the production of prostaglandins, which are important in homeostasis and inflammatory pathways (T. D. Warner et al., Proceedings of the National Academy of Sciences of the United States of America 1999, 96, 9966). A549 human lung carcinoma cells were exposed to aliquots of release buffer, and prostaglandin E2 concentration was measured. In the experiment, the release buffer was replaced every 24 hours, so that time points measured the activity of the drug released during each specific 24 hour period. […] The approach here is a utilization of a charged polymeric carrier capable of facile reversible complexation with the drug of choice in alternation with a degradable polyion. Charged cyclodextrin polymers were used for the trapping of cyclodextrin-drug complexes in stable, surface eroding films capable of drug release within the cyclodextrin carrier without altering activity. […] This technology can be applied to nanomedicine coatings for applications in personalized medicine, transdermal delivery, medical devices, nanoparticulate carriers, prosthetic implants, as well as small molecules for imaging, agriculture, and basic scientific research.

[6] = drug complexed with cyclodextrins, aqueous with cosolvent or surfactant or cyclodextrin, read-out: St, solubility complexed with cyclodextrins

## CC(C(=O)O)c1ccc(-c2ccccc2)c(F)c1 (stereo not drawn) [Flurbiprofen]
[1]; [6]
  solubility: 540 µg/mL (≈ 2210 µM)
[1]; in water
  S0, solubility in water: 8 µg/mL
[2]
  Kc, complexation coefficient: 4930 M⁻¹
[3]
  Release Rate: 4 ng/h

## COc1ccc2cc([C@H](C)C(=O)O)ccc2c1 [Naproxen]
[2]
  Kc, complexation coefficient: 4300 M⁻¹
[3]
  Release Rate: 1 ng/h

## dextran sulfate
[4]
  time span over which dextran sulfate continued to be released: at least 8 days

## O=C(O)Cc1ccccc1Nc1c(Cl)cccc1Cl [Diclofenac]
[1]; [6]
  solubility: 2800 µg/mL (≈ 9450 µM)
[1]; in water, read-out: S0, solubility in water
  solubility: 2 µg/mL (≈ 6.75 µM)
[3]
  Release Rate: 5 ng/h
[5]
  activity of released drug: COX inhibition, suppressed prostaglandin production: highly active

## O=C(O)c1cn(C2CC2)c2cc(N3CCNCC3)c(F)cc2c1=O [Ciprofloxacin]
[3]; poly 1/poly(BCD)-ciprofloxacin films, phosphate buffer
  time through which ciprofloxacin continued to be released (latest time point tested): ≥ 69.3 h
